Earlier results in patent US6528539B1, “Stable formulation containing fumagillin” (Sanofi-Synthelabo, priority 1999, dated 2003).

Details: fumagillin as such; must be stored at −80° C.; literature studies named in b6

COC1C(OC(=O)/C=C/C=C/C=C/C=C/C(=O)O)CCC2(CO2)C1[C@@]1(C)O[C@@H]1CC=C(C)C (stereo in doubt) [Fumagillin, 2,4,6,8-decatetraenedioic acid mono[4-(1,2-epoxy-1,5-dimethyl-4-hexenyl)-5-methoxy-1-oxaspiro[2.5]oct-6-yl] ester]
stability at ambient temperature: highly unstable at ambient temperature
